According to ChEMBL document CHEMBL3046732, “Synthesis and biological evaluation of new [1,3,4]thiadiazepino[7,6-b]quinolin-2-amines as potent anti-microbial agents” (2013):

How the values were obtained:
Escherichia coli = experiment: Antimicrobial activity against Escherichia coli assessed as growth inhibition by microdilution method
Trichoderma reesei = experiment: Antimicrobial activity against Trichoderma reesei assessed as growth inhibition by microdilution method; type: functional
Salmonella typhimurium = experiment: Antimicrobial activity against Salmonella enterica subsp. enterica serovar Typhimurium assessed as growth inhibition by microdilution method
Bacillus subtilis = experiment: Antimicrobial activity against Bacillus subtilis assessed as growth inhibition by microdilution method
Alternaria alternata = experiment: Antimicrobial activity against Alternaria alternata assessed as growth inhibition by microdilution method; type: functional
Aspergillus flavus = experiment: Antimicrobial activity against Aspergillus flavus assessed as growth inhibition by microdilution method; type: functional
Curvularia australiensis = experiment: Antimicrobial activity against Curvularia australiensis assessed as growth inhibition by microdilution method; type: functional
Staphylococcus aureus = experiment: Antimicrobial activity against Staphylococcus aureus assessed as growth inhibition by microdilution method
Aspergillus niger = experiment: Antimicrobial activity against Aspergillus niger assessed as growth inhibition by microdilution method; type: functional
Streptococcus pyogenes = experiment: Antimicrobial activity against Streptococcus pyogenes assessed as growth inhibition by microdilution method
Klebsiella aerogenes = experiment: Antimicrobial activity against Enterobacter aerogenes assessed as growth inhibition by microdilution method

| MIC (Escherichia coli) [µg/mL] | MIC (Trichoderma reesei) [µg/mL] | MIC (Salmonella typhimurium) [µg/mL] | MIC (Bacillus subtilis) [µg/mL] | MIC (Alternaria alternata) [µg/mL] | MIC (Aspergillus flavus) [µg/mL] | MIC (Curvularia australiensis) [µg/mL] | MIC (Staphylococcus aureus) [µg/mL] | MIC (Aspergillus niger) [µg/mL] | MIC (Streptococcus pyogenes) [µg/mL] | MIC (Klebsiella aerogenes) [µg/mL] | Structure (SMILES) |
| --- | --- | --- | --- | --- | --- | --- | --- | --- | --- | --- | --- |
| 60 | 250 | > 1000 | 125 | 250 | 500 | 1000 | > 1000 | 1000 | 60 | 60 | Cc1c(Cl)ccc2cc3c(nc12)SC(Nc1ccccc1)=NN=C3 |
| 1000 | 250 | 1000 | 1000 | 500 | 500 | 1000 | 1000 | 1000 | 1000 | 1000 | Cc1cccc(C)c1NC1=NN=Cc2cc3cccc(C)c3nc2S1 |
| 1000 | 500 | 1000 | 1000 | 1000 | > 1000 | 1000 | 1000 | 1000 | 1000 | 1000 | Cc1ccc2nc3c(cc2c1)C=NN=C(NCc1ccccc1)S3 |
| 500 | 500 | 125 | 1000 | 1000 | 500 | 1000 | 1000 | 1000 | 1000 | 1000 | COc1ccc2nc3c(cc2c1)C=NN=C(Nc1ccccc1C)S3 |
| 1000 | 500 | 1000 | 1000 | 1000 | 1000 | > 1000 | 1000 | 1000 | 1000 | 1000 | Cc1cccc2cc3c(nc12)SC(Nc1ccccc1)=NN=C3 |
| > 1000 | 500 | > 1000 | 1000 | 30 | 1000 | 500 | 1000 | 500 | > 1000 | 1000 | Cc1ccc2nc3c(cc2c1)C=NN=C(Nc1ccc(Cl)cc1)S3 |
| 60 | 250 | 1000 | 125 | 500 | 500 | 1000 | 500 | 500 | 125 | 1000 | Cc1c(Cl)ccc2cc3c(nc12)SC(Nc1cccc(Cl)c1)=NN=C3 |
| 500 | 250 | 1000 | 125 | 250 | 500 | 500 | 1000 | 500 | 60 | 1000 | Cc1c(Cl)ccc2cc3c(nc12)SC(Nc1ccc(F)cc1)=NN=C3 |
| 1000 | 1000 | 1000 | 1000 | 1000 | > 1000 | > 1000 | 500 | > 1000 | 1000 | 60 | Cc1ccc2nc3c(cc2c1)C=NN=C(Nc1ccccc1F)S3 |
| 1000 | 1000 | 1000 | 1000 | 500 | 1000 | 1000 | 1000 | 500 | 1000 | 1000 | Cc1cccc2cc3c(nc12)SC(Nc1cccc(Cl)c1)=NN=C3 |
| 1000 | 500 | 60 | 1000 | 500 | 1000 | 1000 | > 1000 | 1000 | 1000 | 60 | Cc1ccc(NC2=NN=Cc3cc4cc(C)ccc4nc3S2)cc1 |
| 500 | 60 | 500 | 500 | 60 | 500 | 250 | 500 | 500 | 500 | 500 | Cc1c(Cl)ccc2cc3c(nc12)SC(Nc1ccccc1Cl)=NN=C3 |
| 500 | 1000 | 60 | 500 | 500 | 500 | 500 | 500 | 500 | 60 | 125 | COc1ccc2nc3c(cc2c1)C=NN=C(Nc1ccccc1)S3 |
| > 1000 | 1000 | > 1000 | > 1000 | 1000 | 1000 | 1000 | > 1000 | 500 | > 1000 | 1000 | Cc1cccc2cc3c(nc12)SC(NCc1ccccc1)=NN=C3 |
| 500 | 500 | 1000 | 250 | 500 | 1000 | 500 | 500 | 500 | 500 | 1000 | CCc1ccc(NC2=NN=Cc3cc4cccc(C)c4nc3S2)cc1 |
| 500 | 1000 | 125 | 250 | 1000 | 1000 | 1000 | 250 | 1000 | 250 | 250 | Cc1c(Cl)ccc2cc3c(nc12)SC(NCCN1CCOCC1)=NN=C3 |
| 1000 | 250 | 1000 | 1000 | 500 | 250 | 500 | 1000 | 500 | 1000 | 1000 | Cc1cccc2cc3c(nc12)SC(NCCN1CCOCC1)=NN=C3 |
| 1000 | 250 | 1000 | 1000 | 500 | 1000 | 1000 | 1000 | 1000 | 1000 | 1000 | Cc1ccc2nc3c(cc2c1)C=NN=C(Nc1c(C)cccc1C)S3 |
| 250 | 250 | 1000 | 60 | 30 | 500 | 500 | 500 | 500 | 500 | 500 | COc1ccc2nc3c(cc2c1)C=NN=C(Nc1ccc(Cl)cc1)S3 |
| 500 | 1000 | 1000 | 1000 | 1000 | 500 | 1000 | 1000 | > 1000 | 500 | 60 | Cc1ccc2nc3c(cc2c1)C=NN=C(Nc1ccccc1Cl)S3 |
| 1000 | 1000 | 1000 | 125 | 1000 | > 1000 | > 1000 | 1000 | 1000 | 500 | 1000 | CCc1ccc(NC2=NN=Cc3cc4ccc(Cl)c(C)c4nc3S2)cc1 |
| 500 | 250 | 1000 | 60 | 1000 | 1000 | 1000 | 1000 | 1000 | 1000 | 500 | Cc1c(Cl)ccc2cc3c(nc12)SC(Nc1cccc(F)c1)=NN=C3 |
| 125 | 250 | 1000 | 60 | 125 | 500 | 500 | 500 | 500 | 60 | 500 | Cc1cccc(C)c1NC1=NN=Cc2cc3ccc(Cl)c(C)c3nc2S1 |
| 60 | 250 | 500 | 30 | 250 | 500 | 500 | 500 | 500 | 60 | 500 | Cc1ccc(NC2=NN=Cc3cc4ccc(Cl)c(C)c4nc3S2)c(C)c1 |
| 500 | 125 | 500 | 500 | 500 | 500 | 500 | 500 | 1000 | 500 | 500 | Cc1ccc(NC2=NN=Cc3cc4cc(C)ccc4nc3S2)c(C)c1 |
| 500 | 500 | 500 | 1000 | 1000 | 500 | 500 | 1000 | 1000 | 500 | 500 | COc1ccc2nc3c(cc2c1)C=NN=C(Nc1c(C)cccc1C)S3 |
| 1000 | 500 | 1000 | 1000 | 500 | 1000 | 1000 | 1000 | 1000 | > 1000 | 250 | Cc1ccc2nc3c(cc2c1)C=NN=C(Nc1cccc(Cl)c1)S3 |
| 1000 | 500 | 60 | 60 | 500 | 500 | 500 | 1000 | 500 | 1000 | 500 | Cc1c(Cl)ccc2cc3c(nc12)SC(NCc1ccccc1)=NN=C3 |
| 1000 |  | 1000 | 1000 |  |  |  | 1000 |  | 1000 | 1000 | O=C(N[C@H](CO)[C@H](O)c1ccc([N+](=O)[O-])cc1)C(Cl)Cl [CHLORAMPHENICOL] |
